Consider 18 compounds from PubChem BioAssay (NCI).

Values joined by “and” are separate entries in the source; they are usually repeats but may differ in a detail not shown here. Identical values can stand only once.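 Interpolation was linear, between the two tested concentrations surrounding the appropriate level; five concentrations were tested over 48 hours in 96-well plates. GI50: concentration for 50% inhibition of growth. TGI denotes the concentration required for complete inhibition of growth.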

What all share (experiment): NCI tumour cell line growth inhibition, 48 h
Assay [1] has as its system UACC-62 melanoma.
For assay [2], the system named is RPMI-8226 leukemia.
For assay [3], the system named is SK-MEL-5 melanoma.
The subject of assay [4] is COLO 205 colon.
Assay [5] deals with EKVX NSCLC.
In assay [6] the test system is KM12 colon.
The subject of assay [7] is SNB-75 CNS.
For assay [8], the system named is HCC-2998 colon.
The subject of assay [9] is NCI-H460 lung.
Assay [10] deals with M14 melanoma.

Turning to `C1COCCN1.C1COCCN1.NC1CCCCC1N.[Cl-].[Pt+2]` (configuration not stated), the GI50 in assay [1], in assay [2], in [3], in [4], in [5] and in assay [6] was above 100 µM throughout. For the same compound, the GI50 in assay [7], in assay [8], in assay [9] and in assay [10] was above 100 µM in each case. In addition, the TGI in [1], in assay [2], in assay [3], in assay [4], in [5] and in [6] was above 100 µM each time. In addition, the TGI in [7], in [8], in [9] and in assay [10] was above 100 µM throughout.

`COc1cccc(-n2nc(C)c3c(N/N=C(\C)c4ccncc4)ncnc32)c1`: the GI50 in assay [1] is above 25 µM; in assay [2], above 25 µM; in [3], 3.02 µM; in assay [4], above 25 µM; in [5], above 25 µM; in [6] it was above 25 µM. For the same compound, the GI50 in assay [7] is above 9.22 µM; in assay [8] it was above 25 µM; in assay [9] it was above 25 µM; in assay [10] it was above 25 µM. The TGI in assay [1], in assay [2], in [3], in assay [4], in [5] and in assay [6] was above 25 µM each time. Also, the TGI in [7], in assay [8], in [9] and in assay [10] was above 25 µM each time.

Turning to `CC1OC(OC2C[C@](O)(C(=O)CF)Cc3c(O)c4c(c(O)c32)C(=O)c2ccccc2C4=O)CC(N)C1O` (some centres not stated), the TGI in assay [1] was 0.117 µM; in assay [2], 0.132 µM; in assay [3] it was 0.0657 µM; in assay [4] it was 0.266 µM; in assay [5] it was 4.64 µM; in assay [6], 0.239 µM. Also, the TGI in assay [7] was determined as 0.09 µM; in assay [8], 0.488 µM; in assay [9] it was 0.031 µM; in [10], 0.368 µM.

Consider `COc1cccc(-c2nn(-c3ccccc3)cc2-c2ccnc(NCCCNC(=O)Nc3ccc(Cl)c(Cl)c3)c2)c1`, for which the GI50 in assay [1] is 1.91 µM; in assay [2], 2.13 µM; in [3], 1.75 µM; in assay [4], 1.87 µM; in assay [5], 3.51 µM; in assay [6], 2.75 µM. The GI50 is 2.52 µM in [7], 2.17 µM in assay [8], 3.76 µM in assay [9] and 1.97 µM in assay [10]. The TGI was determined as 4 µM in assay [1]; 5.37 µM in assay [2]; 3.32 µM in assay [3]; 3.82 µM in assay [4]; 17.5 µM in assay [5]; 11.3 µM in assay [6]. Also, the TGI in assay [7] was 19.2 µM; in assay [8], 4.22 µM; in assay [9], 14.7 µM; in assay [10], 4.45 µM.

Consider `O=c1ccn(C2CC(O)C(CO)O2)c(=O)[nH]1` (configuration not stated), for which the GI50 was above 5000 µM in assay [1]; 1190 µM in assay [2]; above 5000 µM in [3]; above 5000 µM in assay [4]; above 5000 µM in [5]; above 5000 µM in assay [6]. Further, the GI50 in assay [7], in assay [8], in [9] and in [10] was above 5000 µM each time. The TGI in assay [1], in assay [2], in assay [3], in [4], in [5] and in assay [6] was above 5000 µM in each case. Moreover, the TGI in assay [7], in assay [8], in assay [9] and in assay [10] was above 5000 µM each time.

Turning to `O=C1C(N2CC2)=C(N2CC2)C(=O)C(N2CC2)=C1N1CC1`, the GI50 in [1] was 0.101 µM; in assay [2], 2.74 µM; in assay [3], 0.144 µM; in assay [4] it was 0.163 µM; in assay [5], 1.7 µM; in assay [6] it was 0.696 µM. For the same compound, the GI50 is 0.158 µM in assay [7], 0.168 µM in [8] and below 0.0211 µM in assay [10]. Further, the TGI in [1] was found to be 1.13 µM; in assay [2], 17.2 µM; in [3], 0.359 µM; in assay [4] it was 0.404 µM; in [5], 6.88 µM; in assay [6], 2.72 µM. Also, the TGI in assay [7] is 1.11 µM; in assay [8], 0.569 µM; in assay [9], 0.178 µM; in assay [10] it was 0.199 µM.

Turning to `COc1cc2ccccc2oc1=O`, the TGI in [1], in [2], in assay [3], in assay [4], in assay [5] and in assay [6] was above 100 µM throughout. Further, the TGI in assay [7], in assay [8], in assay [9] and in [10] was above 100 µM in each case.

On to `C=C1/C(=C\C=C2/CCC[C@]3(C)[C@@H]([C@H](C)CCCC(C)(C)O)CC[C@@H]23)C[C@@H](OC(=O)CBr)C[C@@H]1O`, for which the GI50 in assay [1] is 3.29 µM; in assay [2], 0.293 µM; in [3], 2.46 µM; in assay [4], 2.58 µM; in assay [5], 3.17 µM; in assay [6] it was 0.4 µM. Moreover, the GI50 in assay [7] was below 0.0116 µM; in assay [8], 13.6 µM; in assay [9] it was 12 µM; in assay [10], 2.71 µM. The TGI came out at 9.84 µM in [1]; 2.48 µM in assay [2]; 6.41 µM in assay [3]; 19.6 µM in [4]; 19.5 µM in assay [5]; 3.03 µM in assay [6]. The TGI in assay [7] is 0.109 µM; in assay [8], 27.5 µM; in assay [9] it was 28 µM; in assay [10], 8.74 µM.

Turning to `c1cc2n(n1)CCN2`, the TGI in assay [1] was 6540 µM; in assay [2] it was above 10000 µM; in assay [3], above 7740 µM; in [4], above 10000 µM; in assay [5] it was 6630 µM; in [6] it was above 10000 µM. Besides, the TGI was 9460 µM in [7], above 7040 µM in assay [8], 6710 µM in [9] and 5760 µM in [10].

For the compound `C=CCC1(O)c2ccccc2C(=O)c2c(NCCN(CC(=O)OCC)CC(=O)OCC)cccc21` (configuration not stated), the GI50 in assay [1] was above 100 µM; in [2] it was 98.5 µM; in assay [3], above 100 µM; in assay [4], above 100 µM; in [5], above 100 µM; in assay [6], above 100 µM. In addition, the GI50 in [7], in assay [8], in assay [9] and in assay [10] was above 100 µM in each case. In addition, the TGI in assay [1], in [2], in assay [3], in assay [4], in assay [5] and in assay [6] was above 100 µM each time. The TGI in assay [7], in assay [8], in [9] and in assay [10] was above 100 µM throughout.

In the case of `Cc1oc2c(C)c3oc(=O)cc(C)c3cc2c1CN1C(=O)C2OCCOCCOCCOCCOCCO[C@H]2C1=O` (some centres not stated), the TGI in [1], in assay [2], in [3], in assay [4], in [5] and in assay [6] was above 100 µM in each case. In addition, the TGI in assay [7], in assay [8], in [9] and in assay [10] was above 100 µM in each case.

Take `O=S(=O)(Nc1ccc(Br)c(Cl)c1)c1ccc(-c2cnc(C3CC3)o2)cc1`: the GI50 in assay [1] was 0.372 µM; in assay [2], 0.585 µM; in [3] it was 0.602 µM; in assay [4], 0.765 µM; in assay [5], 2.07 µM; in [6], 0.445 µM. Further, the GI50 is 0.196 µM in assay [7], 1.61 µM in assay [8], 0.415 µM in assay [9] and 0.458 µM in assay [10]. Moreover, the TGI in [1] was 13.6 µM; in assay [2] it was 64.8 µM; in assay [3], 13.9 µM; in assay [4] it was 11.3 µM; in assay [5] it was 21 µM; in assay [6], 14.9 µM. For the same compound, the TGI in assay [7] amounted to 0.662 µM; in assay [8], 11.6 µM; in [9] it was 12.6 µM; in assay [10], 14.1 µM.

For the compound `O=C(O)c1cc2ccc3ccccc3c2oc1=O`, the TGI in assay [1], in assay [2], in [3], in assay [4], in assay [5] and in [6] was above 100 µM throughout. For the same compound, the TGI in [7], in assay [8], in assay [9] and in assay [10] was above 100 µM throughout.

On to `Cc1cc(Cl)ccc1Nc1nc(C(F)(F)F)ccc1C(=O)N/N=C/c1ccc(Cl)cc1`, for which the GI50 in assay [1] was 2.14 µM; in [2] it was 2.01 µM; in assay [3], 1.52 µM; in [4], 1.63 µM; in assay [5], 1.25 µM; in [6] it was 2.08 µM. Further, the GI50 in [7] is 1.51 µM; in [8], 1.45 µM; in assay [9], 2.37 µM; in assay [10] it was 2.34 µM. Also, the TGI worked out at 5.33 µM in assay [1]; 6.3 µM in assay [2]; 3.02 µM in assay [3]; 3.37 µM in assay [4]; 4.45 µM in assay [5]; 7.24 µM in [6]. In addition, the TGI in assay [7] turned out to be 6.48 µM; in assay [8], 4.7 µM; in assay [9], 9.08 µM; in assay [10], 7.63 µM.

In the case of `O=C(O)C1OC1(c1cccc(Cl)c1)c1ccccc1Cl` (configuration not stated), the TGI in [1] was 35 µM; in [2] it was 94.8 µM; in assay [3] it was 35.4 µM; in assay [4], above 100 µM; in assay [5] it was 68.4 µM; in [6] it was above 100 µM. The TGI was 57.6 µM in assay [7], above 100 µM in [8], above 100 µM in assay [9] and 42.2 µM in assay [10].

On to `COc1cc2oc3cc(=O)cc4oc(-c5ccccc5)cc(c2c2c1CCC(c1ccccc1)O2)c43` (configuration not stated), for which the TGI in assay [1] was above 100 µM; in [2], 20.9 µM; in assay [3] it was 65.1 µM; in [4], 46.1 µM; in assay [5], above 100 µM; in assay [6], 65.5 µM. Further, the TGI was above 100 µM in [7], above 100 µM in [8], above 100 µM in assay [9] and 33.4 µM in assay [10].

On to `N#CCCN(CCCN(CCCN(C(=O)Nc1ccccc1)c1ccccc1)C(=O)Nc1ccccc1)C(=O)Nc1ccccc1`, for which the GI50 is above 100 µM in assay [1]; 3.89 µM in assay [2]; above 100 µM in [3]; above 100 µM in assay [4]; 16.3 µM in assay [5]; 18.7 µM in [6]. Moreover, the GI50 in assay [7] was 59.5 µM; in assay [10], above 100 µM. In addition, the TGI in assay [1] is above 100 µM; in assay [2], above 100 µM; in assay [3], above 100 µM; in assay [4], above 100 µM; in assay [5], > 8.75 µM and 70.5 µM; in [6], above 100 µM. Besides, the TGI is above 100 µM in assay [7], above 100 µM in assay [8], above 8.75 µM in [9] and above 100 µM in [10].

Turning to `O=C(CC(=O)C1=CNc2ccccc2S1)C(=O)Nc1ccc(Cl)cc1`, the TGI in assay [1], in [2], in assay [3], in [4], in [5] and in assay [6] was above 50 µM throughout. Also, the TGI in assay [7], in assay [8], in [9] and in [10] was above 50 µM in each case.
